ChEMBL document CHEMBL2440076, “New triarylpyrazoles as broad-spectrum anticancer agents: design, synthesis, and biological evaluation” (Eur J Med Chem, 2013)

Tests used:
Type in all cases: functional
SNB-75 [1] = assay: Growth inhibition of human SNB75 cells assessed as cell growth at 10^-7 M after 48 hrs by sulforhodamine B assay; settings: SNB-75, 48 h, read-out: Activity
SF-539 = assay: Growth inhibition of human SF539 cells assessed as cell growth at 10^-7 M after 48 hrs by sulforhodamine B assay; settings: SF-539, 48 h, read-out: Activity
NCI-H522 [2] = assay: Growth inhibition of human NCI-H522 cells assessed as cell growth at 10^-7 M after 48 hrs by sulforhodamine B assay; settings: NCI-H522, 48 h, read-out: Activity
HOP-92 = assay: Growth inhibition of human HOP92 cells assessed as cell growth at 10^-7 M after 48 hrs by sulforhodamine B assay; settings: HOP-92, 48 h, read-out: Activity
A549 [3] = assay: Growth inhibition of human A549/ATCC cells assessed as cell growth at 10^-7 M after 48 hrs by sulforhodamine B assay; settings: A549, 48 h, read-out: Activity
HOP-62 = assay: Growth inhibition of human HOP62 cells assessed as cell growth at 10^-7 M after 48 hrs by sulforhodamine B assay; settings: HOP-62, 48 h, read-out: Activity
T47D = assay: Growth inhibition of human T47D cells assessed as cell growth at 10^-8 M after 48 hrs by sulforhodamine B assay; settings: read-out: Activity
BT-549 [4] = assay: Growth inhibition of human BT549 cells assessed as cell growth at 10^-4 M after 48 hrs by sulforhodamine B assay; settings: BT-549, 48 h, read-out: Activity
DU-145 [5] = assay: Growth inhibition of human DU145 cells assessed as cell growth at 10^-4 M after 48 hrs by sulforhodamine B assay; settings: DU-145, 48 h, read-out: Activity
OVCAR-8 = assay: Growth inhibition of human OVCAR8 cells assessed as cell growth at 10^-4 M after 48 hrs by sulforhodamine B assay; settings: OVCAR-8, 48 h, read-out: Activity
SK-MEL-2 [6] = assay: Growth inhibition of human SK-MEL-2 cells assessed as cell growth at 10^-4 M after 48 hrs by sulforhodamine B assay; settings: SK-MEL-2, 48 h, read-out: Activity
M14 [7] = assay: Growth inhibition of human M14 cells assessed as cell growth at 10^-4 M after 48 hrs by sulforhodamine B assay; settings: M14, 48 h, read-out: Activity
DU-145 [8] = assay: Growth inhibition of human DU145 cells assessed as cell growth at 10^-8 M after 48 hrs by sulforhodamine B assay; settings: DU-145, 48 h, read-out: Activity
UO-31 = assay: Growth inhibition of human UO31 cells assessed as cell growth at 10^-8 M after 48 hrs by sulforhodamine B assay; settings: UO-31, 48 h, read-out: Activity
ACHN = assay: Growth inhibition of human ACHN cells assessed as cell growth at 10^-8 M after 48 hrs by sulforhodamine B assay; settings: read-out: Activity
SNB-75 [9] = assay: Growth inhibition of human SNB75 cells assessed as cell growth at 10^-8 M after 48 hrs by sulforhodamine B assay; settings: SNB-75, 48 h, read-out: Activity
NCI-H522 [10] = assay: Growth inhibition of human NCI-H522 cells assessed as cell growth at 10^-8 M after 48 hrs by sulforhodamine B assay; settings: NCI-H522, 48 h, read-out: Activity
NCI-H23 = assay: Growth inhibition of human NCI-H23 cells assessed as cell growth at 10^-8 M after 48 hrs by sulforhodamine B assay; settings: NCI-H23, 48 h, read-out: Activity
A549 [11] = assay: Growth inhibition of human A549/ATCC cells assessed as cell growth at 10^-4 M after 48 hrs by sulforhodamine B assay; settings: A549, 48 h, read-out: Activity
MOLT-4 = assay: Growth inhibition of human MOLT4 cells assessed as cell growth at 10^-4 M after 48 hrs by sulforhodamine B assay; settings: MOLT-4, 48 h, read-out: Activity
RXF 393 = assay: Growth inhibition of human RXF393 cells assessed as cell growth at 10^-5 M after 48 hrs by sulforhodamine B assay; settings: RXF 393, 48 h, read-out: Activity
OVCAR-5 = assay: Growth inhibition of human OVCAR5 cells assessed as cell growth at 10^-5 M after 48 hrs by sulforhodamine B assay; settings: OVCAR-5, 48 h, read-out: Activity
MDA-MB-435 = assay: Growth inhibition of human MDA-MB-435 cells assessed as cell growth at 10^-5 M after 48 hrs by sulforhodamine B assay; settings: MDA-MB-435, 48 h, read-out: Activity
LOX IMVI = assay: Growth inhibition of human LOXIMVI cells assessed as cell growth at 10^-5 M after 48 hrs by sulforhodamine B assay; settings: read-out: Activity
U-251 = assay: Growth inhibition of human U251 cells assessed as cell growth at 10^-5 M after 48 hrs by sulforhodamine B assay; settings: U-251, 48 h, read-out: Activity
SNB-19 [12] = assay: Growth inhibition of human SNB19 cells assessed as cell growth at 10^-5 M after 48 hrs by sulforhodamine B assay; settings: SNB-19, 48 h, read-out: Activity
NCI-H226 [13] = assay: Growth inhibition of human NCI-H226 cells assessed as cell growth at 10^-5 M after 48 hrs by sulforhodamine B assay; settings: NCI-H226, 48 h, read-out: Activity
K562 = assay: Growth inhibition of human K562 cells assessed as cell growth at 10^-5 M after 48 hrs by sulforhodamine B assay; settings: K562, 48 h, read-out: Activity
BT-549 [14] = assay: Growth inhibition of human BT549 cells assessed as cell growth at 10^-6 M after 48 hrs by sulforhodamine B assay; settings: BT-549, 48 h, read-out: Activity
PC-3 = assay: Growth inhibition of human PC3 cells assessed as cell growth at 10^-6 M after 48 hrs by sulforhodamine B assay; settings: PC-3, 48 h, read-out: Activity
SK-MEL-2 [15] = assay: Growth inhibition of human SK-MEL-2 cells assessed as cell growth at 10^-6 M after 48 hrs by sulforhodamine B assay; settings: SK-MEL-2, 48 h, read-out: Activity
SNB-75 [16] = assay: Growth inhibition of human SNB75 cells assessed as cell growth at 10^-6 M after 48 hrs by sulforhodamine B assay; settings: SNB-75, 48 h, read-out: Activity
SNB-19 [17] = assay: Growth inhibition of human SNB19 cells assessed as cell growth at 10^-6 M after 48 hrs by sulforhodamine B assay; settings: SNB-19, 48 h, read-out: Activity
NCI-H226 [18] = assay: Growth inhibition of human NCI-H226 cells assessed as cell growth at 10^-6 M after 48 hrs by sulforhodamine B assay; settings: NCI-H226, 48 h, read-out: Activity
[19] = Growth inhibition of human NCI-ADR-RES cells assessed as cell growth at 10^-7 M after 48 hrs by sulforhodamine B assay; settings: read-out: Activity
UACC-62 = assay: Growth inhibition of human UACC62 cells assessed as cell growth at 10^-7 M after 48 hrs by sulforhodamine B assay; settings: UACC-62, 48 h, read-out: Activity
UACC-257 = assay: Growth inhibition of human UACC257 cells assessed as cell growth at 10^-7 M after 48 hrs by sulforhodamine B assay; settings: UACC-257, 48 h, read-out: Activity
M14 [20] = assay: Growth inhibition of human M14 cells assessed as cell growth at 10^-7 M after 48 hrs by sulforhodamine B assay; settings: M14, 48 h, read-out: Activity

Structure (SMILES)	growth at 0.1 µM (SNB-75 [1]) [%]	growth at 0.1 µM (SF-539) [%]	growth at 0.1 µM (NCI-H522 [2]) [%]	growth at 0.1 µM (HOP-92) [%]	growth at 0.1 µM (A549 [3]) [%]	growth at 0.1 µM (HOP-62) [%]	growth at 0.01 µM (T47D) [%]	growth at 100 µM (BT-549 [4]) [%]	growth at 100 µM (DU-145 [5]) [%]	growth at 100 µM (OVCAR-8) [%]	growth at 100 µM (SK-MEL-2 [6]) [%]	growth at 100 µM (M14 [7]) [%]	growth at 0.01 µM (DU-145 [8]) [%]	growth at 0.01 µM (UO-31) [%]	growth at 0.01 µM (ACHN) [%]	growth at 0.01 µM (SNB-75 [9]) [%]	growth at 0.01 µM (NCI-H522 [10]) [%]	growth at 0.01 µM (NCI-H23) [%]	growth at 100 µM (A549 [11]) [%]	growth at 100 µM (MOLT-4) [%]	also measured
COc1cc(-c2nn(-c3cccc(NC(=O)c4ccccc4)c3)cc2-c2ccncc2)ccc1Cl	86	91	85	86	94	98	97	28	-5	26	-30	-41	104	92	101	89	91	92	6	33	growth at 10 µM (RXF 393): -9%; growth at 10 µM (OVCAR-5): 59%; growth at 10 µM (MDA-MB-435): -48%; growth at 10 µM (LOX IMVI): 11%; growth at 10 µM (U-251): 17%; growth at 10 µM (SNB-19 [12]): 30%; growth at 10 µM (NCI-H226 [13]): 26%; growth at 10 µM (K562): 10%; growth at 1 µM (BT-549 [14]): 53%; growth at 1 µM (PC-3): 29%; growth at 1 µM (SK-MEL-2 [15]): 22%; growth at 1 µM (SNB-75 [16]): 39%; growth at 1 µM (SNB-19 [17]): 47%; growth at 1 µM (NCI-H226 [18]): 64%; growth at 0.1 µM [19]: 92%; growth at 0.1 µM (UACC-62): 96%; growth at 0.1 µM (UACC-257): 99%; growth at 0.1 µM (M14 [20]): 92%
COc1cc(-c2nn(-c3cccc(NC(=O)c4ccc(N5CCOCC5)c(C(F)(F)F)c4)c3)cc2-c2ccncc2)ccc1Cl	75	68	51	56	69	90	102	9	2	1	-34	-30	108	91	102	89	97	97	4	2	growth at 10 µM (RXF 393): -41%; growth at 10 µM (OVCAR-5): 16%; growth at 10 µM (MDA-MB-435): -36%; growth at 10 µM (LOX IMVI): -8%; growth at 10 µM (U-251): -17%; growth at 10 µM (SNB-19 [12]): 22%; growth at 10 µM (NCI-H226 [13]): 15%; growth at 10 µM (K562): 2%; growth at 1 µM (BT-549 [14]): 54%; growth at 1 µM (PC-3): 15%; growth at 1 µM (SK-MEL-2 [15]): 24%; growth at 1 µM (SNB-75 [16]): -2%; growth at 1 µM (SNB-19 [17]): 38%; growth at 1 µM (NCI-H226 [18]): 28%; growth at 0.1 µM [19]: 72%; growth at 0.1 µM (UACC-62): 56%; growth at 0.1 µM (UACC-257): 74%; growth at 0.1 µM (M14 [20]): 76%
